Laboratory results taken from PMC11845477, “Exploring the principles behind antibiotics with limited resistance” (Nature Communications, 2025).
Like-named read-outs stand apart in the source and are kept apart here.

How the values were obtained:
[1] = system: K. pneumoniae ATCC 10031 (SEN) and K. pneumoniae ATCC 700603 (MDR); test: Frequency-of-resistance (FoR) assay, relative MIC of mutants; type: cell-based, Klebsiella pneumoniae; settings: for MIC: Klebsiella pneumoniae, read-out: MIC of evolved line, Klebsiella pneumoniae ATCC 10031 (KP-SEN)
Method in brief: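 Spontaneous resistant mutants selected on antibiotic agar (≈10^10 cells, 48 h, 37 °C); MICs of ten picked colonies measured by 18 h broth microdilution (OD600 < 0.05 = inhibition) and expressed as MICevolved/MICancestor.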

[2] = system: K. pneumoniae ATCC 10031 (SEN) and K. pneumoniae ATCC 700603 (MDR); test: Adaptive laboratory evolution (ALE), relative MIC of evolved lines; type: cell-based, Klebsiella pneumoniae
Method in brief: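 Ten parallel populations per antibiotic–ancestor pair were evolved in MHB at 37 °C, starting near 50% growth-inhibiting drug. Every 72 h they were passaged into 0.5–2.5× increasing concentrations, keeping the highest-drug well with OD600 > 0.2.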

[3] = Klebsiella pneumoniae ATCC 10031 (KP-SEN), evolved line 1
[4] = Klebsiella pneumoniae ATCC 10031 (KP-SEN), evolved line 2
[5] = Klebsiella pneumoniae ATCC 10031 (KP-SEN), evolved line 3
[6] = Klebsiella pneumoniae ATCC 10031 (KP-SEN), evolved line 1 versus ancestor
[7] = Klebsiella pneumoniae ATCC 10031 (KP-SEN), evolved line 2 versus ancestor
[8] = Klebsiella pneumoniae ATCC 10031 (KP-SEN), evolved line 3 versus ancestor
[9] = Klebsiella pneumoniae ATCC 700603 (KP-MDR), evolved line 1
[10] = Klebsiella pneumoniae ATCC 700603 (KP-MDR), evolved line 3
[11] = KP-SEN (Klebsiella pneumoniae ATCC 10031), evolved line 1
[12] = KP-SEN (Klebsiella pneumoniae ATCC 10031), evolved line 2
[13] = KP-SEN (Klebsiella pneumoniae ATCC 10031), evolved line 6
[14] = KP-SEN (Klebsiella pneumoniae ATCC 10031), evolved line 8

C[C@@H](O)[C@H]1C(=O)N2C(C(=O)O)=C(S[C@H]3CC[S@@+]([O-])C3)S[C@H]12 [Sulopenem]
MIC of evolved line [1, 3]: 0.0312 µg/mL
MIC of evolved line [1, 4]: 0.0312 µg/mL
MIC of evolved line [1, 5]: 0.0312 µg/mL
Relative MIC [1, 6]: 1
Relative MIC [1, 7]: 1
Relative MIC [1, 8]: 1
MIC of evolved line [1, 9]: 4 µg/mL
MIC of evolved line ([1]; Klebsiella pneumoniae ATCC 700603 (KP-MDR), evolved line 2): 4 µg/mL
MIC of evolved line [1, 10]: 8 µg/mL
Relative MIC ([1]; Klebsiella pneumoniae ATCC 700603 (KP-MDR), evolved line 1 versus ancestor): 8
Relative MIC ([1]; Klebsiella pneumoniae ATCC 700603 (KP-MDR), evolved line 2 versus ancestor): 8
Relative MIC ([1]; Klebsiella pneumoniae ATCC 700603 (KP-MDR), evolved line 3 versus ancestor): 16
MIC of evolved line ([2]; KP-MDR (K. pneumoniae ATCC 700603), evolved line 1 of the given antibiotic): 128 µg/mL
Relative MIC ([2]; KP-MDR (K. pneumoniae ATCC 700603), evolved line 1 vs ancestor): 256
MIC of evolved line ([2]; KP-MDR (K. pneumoniae ATCC 700603), evolved line 3 of the given antibiotic): 128 µg/mL
Relative MIC ([2]; KP-MDR (K. pneumoniae ATCC 700603), evolved line 3 vs ancestor): 256
MIC of evolved line ([2]; KP-MDR (K. pneumoniae ATCC 700603), evolved line 4 of the given antibiotic): 128 µg/mL
Relative MIC ([2]; KP-MDR (K. pneumoniae ATCC 700603), evolved line 4 vs ancestor): 256
MIC of evolved line ([2]; KP-MDR (K. pneumoniae ATCC 700603), evolved line 5 of the given antibiotic): 128 µg/mL
Relative MIC ([2]; KP-MDR (K. pneumoniae ATCC 700603), evolved line 5 vs ancestor): 256
MIC of evolved line ([2]; KP-MDR (K. pneumoniae ATCC 700603), evolved line 8 of the given antibiotic): 128 µg/mL
Relative MIC ([2]; KP-MDR (K. pneumoniae ATCC 700603), evolved line 8 vs ancestor): 256
MIC of evolved line ([2]; KP-MDR (K. pneumoniae ATCC 700603), evolved line 9 of the given antibiotic): 128 µg/mL
Relative MIC ([2]; KP-MDR (K. pneumoniae ATCC 700603), evolved line 9 vs ancestor): 256
MIC of evolved line ([2]; KP-MDR (K. pneumoniae ATCC 700603), evolved line 10 of the given antibiotic): 128 µg/mL
Relative MIC ([2]; KP-MDR (K. pneumoniae ATCC 700603), evolved line 10 vs ancestor): 256
Relative MIC (log10) ([2]; KP-MDR (Klebsiella pneumoniae ATCC 700603), evolved line 1): 2.408 log10
Relative MIC (log10) ([2]; KP-MDR (Klebsiella pneumoniae ATCC 700603), evolved line 3): 2.408 log10
Relative MIC (log10) ([2]; KP-MDR (Klebsiella pneumoniae ATCC 700603), evolved line 4): 2.408 log10
Relative MIC (log10) ([2]; KP-MDR (Klebsiella pneumoniae ATCC 700603), evolved line 8): 2.408 log10
Relative MIC (log10) ([2]; KP-MDR (Klebsiella pneumoniae ATCC 700603), evolved line 9): 2.408 log10
MIC of evolved line ([2]; KP-SEN (K. pneumoniae ATCC 10031), evolved line 1 of the given antibiotic): 1 µg/mL
Relative MIC ([2]; KP-SEN (K. pneumoniae ATCC 10031), evolved line 1 vs ancestor): 32
MIC of evolved line ([2]; KP-SEN (K. pneumoniae ATCC 10031), evolved line 2 of the given antibiotic): 1 µg/mL
Relative MIC ([2]; KP-SEN (K. pneumoniae ATCC 10031), evolved line 2 vs ancestor): 32
MIC of evolved line ([2]; KP-SEN (K. pneumoniae ATCC 10031), evolved line 3 of the given antibiotic): 0.25 µg/mL
Relative MIC ([2]; KP-SEN (K. pneumoniae ATCC 10031), evolved line 3 vs ancestor): 8
MIC of evolved line ([2]; KP-SEN (K. pneumoniae ATCC 10031), evolved line 4 of the given antibiotic): 0.5 µg/mL
Relative MIC ([2]; KP-SEN (K. pneumoniae ATCC 10031), evolved line 4 vs ancestor): 16
MIC of evolved line ([2]; KP-SEN (K. pneumoniae ATCC 10031), evolved line 5 of the given antibiotic): 0.5 µg/mL
Relative MIC ([2]; KP-SEN (K. pneumoniae ATCC 10031), evolved line 5 vs ancestor): 16
MIC of evolved line ([2]; KP-SEN (K. pneumoniae ATCC 10031), evolved line 6 of the given antibiotic): 1 µg/mL
Relative MIC ([2]; KP-SEN (K. pneumoniae ATCC 10031), evolved line 6 vs ancestor): 32
MIC of evolved line ([2]; KP-SEN (K. pneumoniae ATCC 10031), evolved line 8 of the given antibiotic): 1 µg/mL
Relative MIC ([2]; KP-SEN (K. pneumoniae ATCC 10031), evolved line 8 vs ancestor): 32
MIC of evolved line ([2]; KP-SEN (K. pneumoniae ATCC 10031), evolved line 9 of the given antibiotic): 0.5 µg/mL
Relative MIC ([2]; KP-SEN (K. pneumoniae ATCC 10031), evolved line 9 vs ancestor): 16
MIC of evolved line ([2]; KP-SEN (K. pneumoniae ATCC 10031), evolved line 10 of the given antibiotic): 1 µg/mL
Relative MIC ([2]; KP-SEN (K. pneumoniae ATCC 10031), evolved line 10 vs ancestor): 32
Relative MIC (log10) [2, 11]: 1.505 log10
Relative MIC (log10) [2, 12]: 1.505 log10
Relative MIC (log10) [2, 13]: 1.505 log10
Relative MIC (log10) [2, 14]: 1.505 log10
Relative MIC (log10) ([2]; KP-SEN (Klebsiella pneumoniae ATCC 10031), evolved line 10): 1.505 log10
Relative MIC [2, 3]: 32
Relative MIC [2, 4]: 32
Relative MIC [2, 5]: 8
Relative MIC ([2]; Klebsiella pneumoniae ATCC 10031 (KP-SEN), evolved line 4): 16
Relative MIC ([2]; Klebsiella pneumoniae ATCC 10031 (KP-SEN), evolved line 5): 16
Relative MIC ([2]; Klebsiella pneumoniae ATCC 10031 (KP-SEN), evolved line 6): 32
Relative MIC ([2]; Klebsiella pneumoniae ATCC 10031 (KP-SEN), evolved line 8): 32
Relative MIC ([2]; Klebsiella pneumoniae ATCC 10031 (KP-SEN), evolved line 9): 16
Relative MIC ([2]; Klebsiella pneumoniae ATCC 10031 (KP-SEN), evolved line 10): 32
Relative MIC [2, 9]: 256
Relative MIC [2, 10]: 256
Relative MIC ([2]; Klebsiella pneumoniae ATCC 700603 (KP-MDR), evolved line 4): 256
Relative MIC ([2]; Klebsiella pneumoniae ATCC 700603 (KP-MDR), evolved line 5): 256
Relative MIC ([2]; Klebsiella pneumoniae ATCC 700603 (KP-MDR), evolved line 8): 256
Relative MIC ([2]; Klebsiella pneumoniae ATCC 700603 (KP-MDR), evolved line 9): 256
Relative MIC ([2]; Klebsiella pneumoniae ATCC 700603 (KP-MDR), evolved line 10): 256

O=c1ccc2ncc(=O)n3c2n1C[C@H]3CN1CCC(NCc2cc3c(cn2)OCCC3)CC1 [Gepotidacin]
Relative MIC [1, 6]: 1
Relative MIC [1, 7]: 1
Relative MIC [1, 8]: 1
MIC ([1]; evolved line 1): 0.0625 µg/mL
MIC ([1]; evolved line 2): 0.0625 µg/mL
MIC ([1]; evolved line 3): 0.0625 µg/mL
Relative MIC [2, 11]: 2048
Relative MIC [2, 12]: 2048
Relative MIC (log10) ([2]; KP-SEN (Klebsiella pneumoniae ATCC 10031), evolved line 2 adapted to the named antibiotic): 3.311
Relative MIC ([2]; KP-SEN (Klebsiella pneumoniae ATCC 10031), evolved line 3): 1024
Relative MIC (log10) ([2]; KP-SEN (Klebsiella pneumoniae ATCC 10031), evolved line 3 adapted to the named antibiotic): 3.0103
Relative MIC ([2]; KP-SEN (Klebsiella pneumoniae ATCC 10031), evolved line 4): 1024
Relative MIC [2, 13]: 2048
Relative MIC (log10) ([2]; KP-SEN (Klebsiella pneumoniae ATCC 10031), evolved line 6 adapted to the named antibiotic): 3.311
Relative MIC (log10) ([2]; KP-SEN (Klebsiella pneumoniae ATCC 10031), evolved line 7 adapted to the named antibiotic): 3.311
Relative MIC [2, 14]: 1024
Relative MIC ([2]; KP-SEN (Klebsiella pneumoniae ATCC 10031), evolved line 9): 1024
Relative MIC ([2]; KP-SEN, Klebsiella pneumoniae ATCC 10031, evolved line 1 versus ancestor): 2048
Relative MIC ([2]; KP-SEN, Klebsiella pneumoniae ATCC 10031, evolved line 2 versus ancestor): 2048
Relative MIC ([2]; KP-SEN, Klebsiella pneumoniae ATCC 10031, evolved line 3 versus ancestor): 1024
Relative MIC ([2]; KP-SEN, Klebsiella pneumoniae ATCC 10031, evolved line 4 versus ancestor): 1024
Relative MIC ([2]; KP-SEN, Klebsiella pneumoniae ATCC 10031, evolved line 5 versus ancestor): 1024
Relative MIC ([2]; KP-SEN, Klebsiella pneumoniae ATCC 10031, evolved line 6 versus ancestor): 2048
Relative MIC ([2]; KP-SEN, Klebsiella pneumoniae ATCC 10031, evolved line 7 versus ancestor): 2048
Relative MIC ([2]; KP-SEN, Klebsiella pneumoniae ATCC 10031, evolved line 8 versus ancestor): 1024
Relative MIC ([2]; KP-SEN, Klebsiella pneumoniae ATCC 10031, evolved line 9 versus ancestor): 1024
Relative MIC ([2]; KP-SEN, Klebsiella pneumoniae ATCC 10031, evolved line 5): 1024
Relative MIC ([2]; KP-SEN, Klebsiella pneumoniae ATCC 10031, evolved line 7): 2048
